Source: patent US8895738B2, “Mesoionic pyrido [1, 2-A] pyrimidine pesticides” (E I du Pont de Nemours and Company, priority 2010, dated 2014)
Counter-ions that a name gives are not always drawn.

What was measured:
Assay type in all cases: in vivo
[1] = test system: green peach aphid (Myzus persicae); assay: Test B: control of green peach aphid on radish plant, contact and/or systemic; settings: 144 h, assessed after 6 days
Text: For evaluating control of green peach aphid (Myzus persicae) through contact and/or systemic means, the test unit consisted of a small open container with a 12-15-day-old radish plant inside. This was pre-infested by placing on a leaf of the test plant 30-40 aphids on a piece of leaf excised from a culture plant (cut-leaf method). The aphids moved onto the test plant as the leaf piece desiccated. After pre-infestation, the soil of the test unit was covered with a layer of sand.
Test compounds were formulated and sprayed at 250, 50 and/or 10 ppm as described for Test A. The applications were replicated three times. After spraying of the formulated test compound, each test unit was allowed to dry for 1 h and then a black, screened cap was placed on top. The test units were held for 6 days in a growth chamber at 19-21° C. and 50-70% relative humidity. Each test unit was then visually assessed for insect mortality.

[2] = test system: Rice plants (indica cultivar ‘IR 64’); assay: Test L: vigor and harvest yield of rice crop outdoors, Dhamtari; settings: for harvest yield: controls 2630 kg/ha
Procedure: (§1) To evaluate the effect of application of a compound of the invention on the vigor of rice crops grown under outdoor conditions, Tests 1 through 0 were conducted. “a.i.” refers to the amount of active ingredient applied.
Rice plants (indica cultivar ‘IR 64’) were transplanted into flooded 6 m×5 m test plots of clay loam soil in the Dhamtari district, State of Chhattisgarh, India, in the early spring season, and grown using local agronomic practices. After 79 days, in the hot season before monsoon arrival, aqueous mixtures containing 30 g a.i./ha of indoxacarb in form of STEWARD® Insecticide, 20 g a.i./ha of chlorantraniliprole, and 6.25, 12.5, 25 or 50 g a.i./ha of Compound 3 were applied to the foliage of the rice plants at in a spray volume of 500 L/ha using a backpack sprayer. Plots of control rice plants were sprayed with an aqueous mixture containing 30 g a.i./ha of indoxacarb in form of STEWARD® Insecticide and 20 g a.i./ha of chlorantraniliprole (i.e. no Compound 3). Each treatment and control was replicated three times, and the plots were arranged in a randomized complete block design. At the time of application of Compound 3, the pest level of rice brown planthopper (Nilaparvata lugens) was high, i.e. above the level considered economically significant.
Even though the pest level was high, at the time of treatment the plants had already reached full height and produced panicles, so the treatment with Compound 3 was too late to noticeably increase crop vigor rated by general external appearance (e.g., plant height, number of panicles). Nevertheless, the treatments substantially benefited crop vigor as measured by harvest yield. Harvest yields from the crops treated with 6.25, 12.5, 25 and 50 g a.i./ha of Compound 3 were 4630, 4830, 4730 and 4930 kg/ha, respectively, compared to 2630 kg/ha from the untreated controls.

[3] = test system: Rice plants (indica cultivar ‘IR-64’); assay: Test O: harvest yield of rice crop outdoors, Bargarh; settings: 12.5, 25 and 50 g a.i./ha (method: 6.25, 12.5, 25 or 50), with indoxacarb and chlorantraniliprole, controls 1370 kg/ha
Procedure: as §1
Rice plants (indica cultivar ‘IR-64’) were transplanted into flooded 5 m×5 m test plots of clay loam soil the Bargarh district, Orissa, India, at the end of the winter season, and grown using local agronomic practices. After 79 days, aqueous mixtures containing 30 g a.i./ha of indoxacarb in form of STEWARD® Insecticide, 20 g a.i./ha of chlorantraniliprole, and 6.25, 12.5, 25 or 50 g a.i./ha of Compound 3 were applied to the foliage of the rice plants at in a spray volume of 500 L/ha using a backpack sprayer. Plots of control rice plants were sprayed with an aqueous mixture containing 30 g a.i./ha of indoxacarb in form of STEWARD® Insecticide and 20 g a.i./ha of chlorantraniliprole (i.e. no Compound 3). Each treatment and control was replicated three times, and the plots were arranged in a randomized complete block design. At the time of application of Compound 3, the pest level of rice brown planthopper (Nilaparvata lugens) was high, i.e. much above the level considered economically significant.
Harvest yields from the crops treated with 12.5, 25 and 50 g a.i./ha of Compound 3 were 2470, 3430, 3470 and 4600 kg/ha, respectively, compared to 1370 kg/ha from the untreated controls.

[4] = test system: rice green leafhopper (Nephotettix virescens); assay: Test G: control of rice green leafhopper on rice plant; settings: 120 h, assessed after 5 days, read-out: control efficacy: mortality
Procedure: For evaluating control of rice green leafhopper (Nephotettix virescens) through contact and/or systemic means, the test unit consisted of a plastic pot containing a 13-cm-tall rice plant covered with steel wire mesh (50 mesh) supported by a wire frame. A small amount of sand was added to form a good seal between the bottom of the wire mesh, the soil surface and the top edge of the plastic pot.
Test compounds were formulated and sprayed at 50, 10 and/or 2 ppm, and the tests were replicated three times in a manner similar to the one described for Test A. After spraying, the test units were allowed to dry for 2 h before they were post-infested with 10 green leafhoppers (3rd instar nymphs, 7-9 days post-hatch). After 5 days, each test unit was visually assessed for insect mortality.

[5] = test system: Rice plants (indica cultivar ‘MTU1010’); assay: Test I: vigor of rice crop outdoors, foliar application, West Godavri; settings: 20 days after application, Nilaparvata lugens level high
Procedure: as §1
Rice plants (indica cultivar ‘MTU1010’) were transplanted into flooded 5 m×3 m test plots of clay loam soil in the delta region of the West Godavri district, Andhra Pradesh, India, during the rainy season, and grown using local agronomic practices. After 47 days, aqueous mixtures of Compound 3 were applied to the foliage of the rice plants at 12.5, 25 or 50 g a.i./ha in a spray volume of 387 L/ha using a backpack sprayer. Plots of unsprayed rice plants were used as controls. Each treatment and control was replicated three times, and the plots were arranged in a randomized complete block design. At the time of application of Compound 3, the pest level of rice brown planthopper (Nilaparvata lugens) was high, i.e. much above the level considered economically significant.
The crop vigor of the rice plants in each plot was visually rated based on general external appearance (e.g., plant height) 20 days after application on a 0 to 200% scale, wherein the plants in untreated control plots were considered to represent 100%, and the results for the three replicates for each treatment were averaged. More than 100% means the plants in a treated plot were more vigorous than those in the untreated control plot, while less than 100% means the plants in the treated pot were less vigorous.

O=c1c(-c2cccc(C(F)(F)F)c2)c([O-])[n+](Cc2cncnc2)c2ccccn12 [Compound 3, 2-hydroxy-4-oxo-1-(5-pyrimidinylmethyl)-3-[3-(trifluoromethyl)phenyl]-4H-pyrido[1,2-a]pyrimidinium inner salt]
mortality at 50 ppm ([1]; sprayed at 50 ppm): ≥ 80%
mortality at 250 ppm ([1]; sprayed at 250 ppm): ≥ 80%
harvest yield ([2]; 6.25 g a.i./ha with 30 g a.i./ha indoxacarb and 20 g a.i./ha chlorantraniliprole): 4630 kg/ha
harvest yield ([2]; 12.5 g a.i./ha with 30 g a.i./ha indoxacarb and 20 g a.i./ha chlorantraniliprole): 4830 kg/ha
harvest yield ([2]; 25 g a.i./ha with 30 g a.i./ha indoxacarb and 20 g a.i./ha chlorantraniliprole): 4730 kg/ha
harvest yield ([2]; 50 g a.i./ha with 30 g a.i./ha indoxacarb and 20 g a.i./ha chlorantraniliprole): 4930 kg/ha
crop vigor (visual rating, 0 to 200% scale, control = 100%) ([2]; all application rates (6.25, 12.5, 25 or 50 g a.i./ha) with 30 g a.i./ha indoxacarb and 20 g a.i./ha chlorantraniliprole, 21 days after application, Nilaparvata lugens level high): 100%
harvest yield ([3]; 1st of four values): 2470 kg/ha
harvest yield ([3]; 2nd of four values): 3430 kg/ha
harvest yield ([3]; 3rd of four values): 3470 kg/ha
harvest yield ([3]; 4th of four values): 4600 kg/ha
mortality at 2 ppm ([4]; sprayed at 2 ppm): ≥ 80%
mortality at 10 ppm ([4]; sprayed at 10 ppm): ≥ 80%
mortality at 50 ppm ([4]; sprayed at 50 ppm): ≥ 80%
crop vigor (visual rating, 0 to 200% scale, untreated = 100%) ([5]; 12.5 g a.i./ha foliar): 140%
crop vigor (visual rating, 0 to 200% scale, untreated = 100%) ([5]; 25 g a.i./ha foliar): 143%
crop vigor (visual rating, 0 to 200% scale, untreated = 100%) ([5]; 50 g a.i./ha foliar): 143%
